# Results: patent US20250213528A1, “5-METHOXY-N,N-[…][…] THE TREATMENT OF ANXIETY” (GH RESEARCH IRELAND LIMITED, priority 2022, published 2025)
# How the values were obtained:
# [1] = tested on: Salmonella typhimurium TA98, TA100, TA1535 and TA1537; test: Bacterial mutation test, Salmonella typhimurium; format: cell-based; conditions: up to 5000 μg/plate, absence and presence of rat liver S-9
# Description: (§1) These conditions included treatments at concentrations up to 5000 μg/plate (the maximum recommended concentration according to current regulatory guidelines), in the absence and in the presence of a rat liver metabolic activation system (S-9).
# [2] = tested on: Escherichia coli WP2 uvrA pKM101; test: Bacterial mutation test, Escherichia coli; format: cell-based; conditions: up to 5000 μg/plate, absence and presence of rat liver S-9
# Description: as §1
# [3] = Pharmacokinetics of 5-MeO-DMT and bufotenine after inhalation of 5-MeO-DMT; format: in vivo, human
# [4] = tested on: patients with postpartum depression (PPD); test: Clinical trial of inhaled 5-MeO-DMT in postpartum depression, one patient, IDR 6 mg then 12 mg; format: in vivo, human; conditions: n=1
# Excerpt: Maternal functioning can, for instance, be assessed using the Barkin Index of Maternal Functioning (BIMF). This index was designed to measure functioning in the year after childbirth. The BIMF is a 20-item self-report measure of functioning. Each item is assigned a score between 0 and 6 so that the maximum total score is 120. The higher the score, the better maternal functioning is rated.
# The single-arm, open-label clinical trial will involve 15 adult female patients with clinically diagnosed postpartum depression (PPD).
# The second dose (12 mg) will only be administered if: • a. […] The 6 mg dose was safe and well-tolerated according to the investigator, • c. Any psychoactive effects (PsE) of the prior dose have subsided, and • d. Pre-dose vital parameters and forced expiratory volume in one second (FEV1) are in normal range, or if outside of the normal range, are not clinically significant according to the investigator. • 3. Similarly, a third dose (18 mg) will only be administered if: • a. […] The 12 mg dose was safe and well-tolerated according to the investigator, and • c. Any PsE of the prior dose have subsided, and • d. Pre-dose vital parameters and forced expiratory volume in one second (FEV1) are in normal range, or if outside of the normal range, are not clinically significant according to the investigator.
# The patients will be assessed for a peak psychedelic experience (based on a patient-scored visual analogue scale, the PE scale), sedation, and other endpoints after dosing. Follow-up visits are planned for Day 1, and Day 7 after the dosing day.
# The following criteria must be met by all patients considered for clinical trial participation: • 1. Is female and in the age range between 18 and 45 years (inclusive) at screening. • 2. Has a body mass index (BMI) in the range of 18.5 and 35 kg/m^2 (inclusive) at screening. • 3. Meets the trial criteria for PPD as assessed by a trial psychiatrist or registered psychologist: • a. Diagnosis of Major Depressive Disorder without psychotic features, confirmed by the Mini-International Neuropsychiatric Interview (MINI), with peri-partum onset that began no earlier than gestation and no later than the first 4 weeks postpartum. • b. Has a Montgomery-Åsberg Depression Rating Scale (MADRS) total score of equal to or greater than 28 at screening and pre-dose on Day 0. • 6. […] Patients must have a negative pregnancy test at screening and on the pre-test day (Day-1). • 5. Is willing to delay start of other antidepressant or anxiety medication until after the end of the trial at Day 7 and agrees to keep any psychotherapy unchanged during the trial.
# A potential patient who meets any of the following key exclusion criteria will be excluded from participation in this trial: • 1. Has, based on history, psychiatric assessment, and evaluation of the MINI, a current or prior diagnosis of bipolar disorder, a manic or hypomanic episode, a psychotic disorder, Major Depressive Disorder (MDD) or other mood disorder with psychotic features, obsessive compulsive disorder, post-traumatic stress disorder (PTSD), autism spectrum disorder, borderline personality disorder, schizophrenia, delusional disorder, paranoid personality disorder, schizoaffective disorder, clinically significant intellectual disability, or any other psychiatric comorbidity that renders the patient unsuitable for the trial according to the investigator's judgment. • 2. Has one or more first or second degree relatives with a current or previously diagnosed bipolar disorder, psychotic disorder or other mood disorder (including MDD) with psychotic features. • 3.
structure (smiles),measurement,setting,value
COc1ccc2[nH]cc(CCN(C)C)c2c1 [5-MeO-DMT],mutation induction,[1],did not induce mutation
same,mutation induction,[2],did not induce mutation
same,detectability in the plasma,"[3]; 3 hours after inhalation, whole dose range 6, 12, 18 mg",no longer detectable
same,pharmacokinetic measurements under uptitration,"[3]; dosing schemes relying on uptitration, compared with single doses",Substantially similar results
same,standard criteria for MADRS remission (MADRS total score equal or less than 10),[4],fulfilled
same,standard criteria for MADRS response (at least 50% improvement from baseline),[4],fulfilled
same,time to clinical remission after administration,[4],≤ 2 h
same,durability of clinical response,[4]; 5-MeO-DMT given on one day only,sustained over the 7-day follow-up period
same,Total MADRS Improvement,[4]; 2 hr,24
same,BPRS Tension Improvement,[4]; Day 1,5
same,Total MADRS Improvement,[4]; Day 1,29
same,Total MADRS Improvement,[4]; Day 7,28
same,"BIMF item 19 As time goes on, I am getting better at taking care of my baby, score","[4]; Day 7, Day 0 score 0",1
same,"BIMF item 13 I am taking good care of my physical needs, score","[4]; Day 7, Day 0 score 4",5
same,"BIMF item 5 I am able to relax and enjoy time with my baby, score","[4]; Day 7, Day 0 score 5",6
same,"BIMF item 9 I am getting enough encouragement from other people, score","[4]; Day 7, Day 0 score 5",6
same,"BIMF item 10 I trust my own feelings (instincts) when it comes to taking care of my baby, score","[4]; Day 7, Day 0 score 5",6
same,"BIMF item 17 I am able to take care of my baby and my other responsibilities, score","[4]; Day 7, Day 0 score 5",5
same,BIMF functional domain Adjustment score,"[4]; Day 7, Day 0 score 5, maximum possible 12",6
same,"BIMF item 3 I am comfortable with the way I've chosen to feed my baby, score","[4]; Day 7, Day 0 score 6",6
same,"BIMF item 6 There are people in my life that I can trust to care for my baby when I need a break, score","[4]; Day 7, Day 0 score 6",6
same,"BIMF item 8 I am getting enough adult interaction, score","[4]; Day 7, Day 0 score 6",6
same,"BIMF item 12 I am taking good care of my baby's physical needs, score","[4]; Day 7, Day 0 score 6",6
same,"BIMF item 14 I make good decisions about my baby's health and well being, score","[4]; Day 7, Day 0 score 6",6
same,"BIMF item 20 I am satisfied with the job I am doing as a new mother, score","[4]; Day 7, Day 0 score 6",5
same,BIMF functional domain Self Care score,"[4]; Day 7, Day 0 score 9, maximum possible 18",13
same,BIMF functional domain Infant Care score,"[4]; Day 7, Day 0 score 12, maximum possible 12",12
same,BIMF functional domain Mother-Child Interaction score,"[4]; Day 7, Day 0 score 15, maximum possible 18",17
same,BIMF functional domain Social Support score,"[4]; Day 7, Day 0 score 17, maximum possible 18",18
same,BIMF functional domain Management score,"[4]; Day 7, Day 0 score 28, maximum possible 36",33
same,BIMF functional domain Psychological Well-being score,"[4]; Day 7, Day 0 score 44, maximum possible 60",53
same,BIMF total score improvement,"[4]; Day 7, from 92 to 105 of possible 120",14%
same,"BIMF TOTAL, Δ (Day 7)",[4]; Day 7 vs Day 0,13
same,"BIMF item 3 I am comfortable with the way I've chosen to feed my baby, Δ (Day 7)",[4]; Day 7 vs Day 0,0
same,"BIMF item 5 I am able to relax and enjoy time with my baby, Δ (Day 7)",[4]; Day 7 vs Day 0,1
same,"BIMF item 6 There are people in my life that I can trust to care for my baby when I need a break, Δ (Day 7)",[4]; Day 7 vs Day 0,0
same,"BIMF item 8 I am getting enough adult interaction, Δ (Day 7)",[4]; Day 7 vs Day 0,0
same,"BIMF item 9 I am getting enough encouragement from other people, Δ (Day 7)",[4]; Day 7 vs Day 0,1
same,"BIMF item 10 I trust my own feelings (instincts) when it comes to taking care of my baby, Δ (Day 7)",[4]; Day 7 vs Day 0,1
same,"BIMF item 11 I take a little time each week to do something for myself, Δ (Day 7)",[4]; Day 7 vs Day 0,1
same,"BIMF item 12 I am taking good care of my baby's physical needs, Δ (Day 7)",[4]; Day 7 vs Day 0,0
same,"BIMF item 13 I am taking good care of my physical needs, Δ (Day 7)",[4]; Day 7 vs Day 0,1
same,"BIMF item 14 I make good decisions about my baby's health and well being, Δ (Day 7)",[4]; Day 7 vs Day 0,0
same,"BIMF item 17 I am able to take care of my baby and my other responsibilities, Δ (Day 7)",[4]; Day 7 vs Day 0,0
same,"BIMF item 19 As time goes on, I am getting better at taking care of my baby, Δ (Day 7)",[4]; Day 7 vs Day 0,1
same,"BIMF item 20 I am satisfied with the job I am doing as a new mother, Δ (Day 7)",[4]; Day 7 vs Day 0,−1
same,BPRS Tension Improvement,[4]; Discharge,5
CN(C)CCc1c[nH]c2ccc(O)cc12 [bufotenine],bufotenine blood concentration above LLOQ,"[3]; after inhaled 5-MeO-DMT, LLOQ 25 pg/ml",Only in few samples
same,bufotenine blood concentrations under uptitration,[3]; subjects receiving an uptitration scheme included,Substantially similar observations
